Key:
Format in all cases: cell-based
Tel-Jak2 = target: T1, Tel-Jak2 (Homo sapiens, UniProt O60674); assay: Cellular growth inhibition assay (MTT), Tel-Jak2 transformed BaF3 cell line; settings: 40 hr incubation, read-out: Jak2: growth inhibitory activity (>50%) in transformed cell line Tel-Jak2
T1 construct: The regions encompassing the kinase domains of JAK2 (nucleotides 2994–3914); TEL (ETV6, human P41212) N-terminal part encoded by nucleotides 1-487 of TEL; expressed in transfected cells; host or cells: BaF3 (murine) bearing pTET-off, transfected with pTELJAK2 (pTRE2 vector); the other entry of the earlier key: ETV6 (P41212, Transcription factor ETV6)
From the text: (§1) The coding region encompassing nucleotides 1–487 of TELwas amplified by PCR using the oligonucleotides 5TEL (5′-GGAGGATCCTGATCTCTCTCGCTGTGAGAC-3′) and 3TEL (5′-AGGC GTCGACTTCTTCTTCATGGTTCTG-3′) and U937 mRNA as template. A BamHI site was present into the 5TEL Primer, a SalI site was incorporated into the 3TEL primer. The regions encompassing the kinase domains of JAK2 (nucleotides 2994–3914; JAK2F 5′-ACGC GTCGACGGTGCCTTTGAAGACCGGGAT-3′; JAK2R 5′-ATAGTTTAGCGGCCGCTCAGAATGAAGGTCATTT-3′) and JAK3 (nucleotides 2520–3469; JAK3F 5′-GAAGTCGACTATGCCTGCCAAGACCCCACGATCTT-3′; JAK3R 5′-GGATCTAGACTATGAAAAGGACAGGGAGTGGTGTTT-3′) were generated by PCR using Taq DNA Polymerase (Gibco/BRL) and U937 mRNA as template. A SalI site was incorporated into the forward primer of JAK2 and JAK3, a NotI site was incorporated into the JAK2 reverse primer and a Xba I site was added to the reverse primer of JAK3.
(§2) A TEL/Jak2 fusion was generated by digestion of the TELPCR product with BamHI/SalI, digestion of the JAK2 PCR product with SalI/NotI followed by ligation and subcloning into the mammalian expression Vector pTRE 2 (Clontech) digested with BamHI-NotI (pTELJAK2). For JAK3 SalI/NotI cleaved kinase domain PCR product was ligated with BamHI/SalI cleaved TELproduct followed by ligation into BamHI/NotI cleaved pTRE2 (pTELJAK3).
(§3) The growth factor dependent myelomonocytic cell line BaF3 bearing the pTET-off plasmid (Clontech) was transfected with either pTELJAK2 or pTELJAK3 and the cells selected for factor independent growth. BaF 3 wild type cells were cultured in DMEM 10% FCS, 10% WEHI 3B conditioned medium. BaF3 TELJAK cells were cultured in DMEM 10% Tet-System Approved FBS (without WEHI 3B conditioned medium).
(§4) Cell suspensions were prepared by harvesting cells from culture. (Cells used in this test should be in later log phase growth and high viability.) Cells were diluted in correct growth medium to 1.1×final concentration (from 50000 cell/mL to 200,000 cell/mL, depending on cell line).
(§5) Compounds to be tested were added (10 μL, 10×final concentration) to a flat bottom 96-well plate. The cellular suspension (90 μL per well) was added, and the plate incubated for 40 hr at 37° C., 5% CO2. MTT (20 μL per well, 5 mg/mL in PBS) was added and the plates were returned to the incubator for a further 6 hours. Lysis buffer (100 μL per well, 10% SDS, 0.01N HCl) was added and the plate stored in the incubator overnight. The plate was then read at 590 nm.

DU145 = assay: Cellular growth inhibition assay (MTT), DU145 cells; settings: Homo sapiens, DU-145, 40 hr incubation, read-out: DU145: growth inhibitory activity
Description: as §4, §5

Tel-Jak3 = target: T2, Tel-Jak3 (Homo sapiens, UniProt P52333); assay: Cellular growth inhibition assay (MTT), Tel-Jak3 transformed BaF3 cell line; settings: 40 hr incubation, read-out: Jak3: growth inhibitory activity (>50%) in transformed cell line Tel-Jak3
T2 construct: TEL (ETV6, human P41212) N-terminal part encoded by nucleotides 1-487 of TEL; expressed in transfected cells; host or cells: BaF3 (murine) bearing pTET-off, transfected with pTELJAK3 (pTRE2 vector); the other entry of the earlier key: ETV6 (P41212, Transcription factor ETV6)
From the text: as §1, §2, §3, §4, §5

T1 sequence (O60674 with tags, fused parts or gaps): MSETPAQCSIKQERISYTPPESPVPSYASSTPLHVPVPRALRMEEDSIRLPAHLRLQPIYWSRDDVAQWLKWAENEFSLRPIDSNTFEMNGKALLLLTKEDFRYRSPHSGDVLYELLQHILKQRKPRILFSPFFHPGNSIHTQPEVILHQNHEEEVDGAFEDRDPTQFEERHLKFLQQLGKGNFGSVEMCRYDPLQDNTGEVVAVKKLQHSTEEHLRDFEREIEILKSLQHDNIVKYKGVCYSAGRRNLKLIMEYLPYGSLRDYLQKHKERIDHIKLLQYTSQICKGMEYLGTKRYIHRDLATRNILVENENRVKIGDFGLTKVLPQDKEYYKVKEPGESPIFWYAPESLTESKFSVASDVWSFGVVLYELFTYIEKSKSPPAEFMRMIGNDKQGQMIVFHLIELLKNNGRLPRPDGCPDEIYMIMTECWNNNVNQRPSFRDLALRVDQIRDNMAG
T2 sequence (P52333 with tags, fused parts or gaps): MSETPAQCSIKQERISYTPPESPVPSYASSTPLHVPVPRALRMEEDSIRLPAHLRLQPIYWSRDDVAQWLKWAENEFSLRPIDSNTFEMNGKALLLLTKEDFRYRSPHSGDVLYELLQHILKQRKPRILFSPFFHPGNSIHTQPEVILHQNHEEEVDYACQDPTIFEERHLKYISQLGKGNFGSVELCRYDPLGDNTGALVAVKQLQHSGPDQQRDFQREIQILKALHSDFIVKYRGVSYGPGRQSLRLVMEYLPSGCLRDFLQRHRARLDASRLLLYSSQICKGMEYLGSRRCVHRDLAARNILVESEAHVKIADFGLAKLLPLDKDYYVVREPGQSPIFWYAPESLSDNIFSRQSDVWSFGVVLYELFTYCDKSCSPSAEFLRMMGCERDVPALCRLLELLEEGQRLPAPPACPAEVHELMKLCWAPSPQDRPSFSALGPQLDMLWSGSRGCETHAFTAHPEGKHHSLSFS

Row | Structure (SMILES) | inhibition at 50 µM (Tel-Jak2) [%] | inhibition at 50 µM (DU145) [%] | inhibition at 50 µM (Tel-Jak3) [%]
1 | COc1cc(-c2cncc(NC(C)c3ccc(C(N)=O)cc3)n2)ccc1O (stereo not drawn) [Chemistry 304] | > 50 | < 50 | > 50
2 | COc1cc(-c2cncc(NC(C)c3ccc(NCCN4CCN(C)CC4)cc3)n2)ccc1O (stereo not drawn) [Chemistry 318] | > 50 | < 50 | > 50
3 | COc1cc(-c2cncc(NC(C)c3ccc(N)cc3)n2)ccc1O (stereo not drawn) [Chemistry 319] | > 50 | < 50 | > 50
4 | COc1cc(-c2cncc(NC(C)c3ccc(NCc4cccnc4)cc3)n2)ccc1O (stereo not drawn) [Chemistry 320] | > 50 | < 50 | > 50
5 | COc1cc(-c2cncc(NC(C)c3ccc(C(=O)O)cc3)n2)ccc1O (stereo not drawn) [Chemistry 324] | < 50 | < 50 | < 50
6 | COc1cc(-c2cncc(NC(C)c3ccc(C(=O)NCCN(C)C)cc3)n2)ccc1O (stereo not drawn) [Chemistry 352] | > 50 | < 50 | > 50
7 | COc1cc(-c2cncc(NC(C)c3ccc(C(=O)NCC4CC4)cc3)n2)ccc1O (stereo not drawn) [Chemistry 354] | > 50 | < 50 | > 50
8 | CNC(=O)c1ccc(C(C)Nc2cncc(-c3ccc(O)c(OC)c3)n2)cc1 (stereo not drawn) [Chemistry 370] | > 50 | < 50 | > 50
9 | COc1cc(-c2cncc(NC(C)c3ccc(C(=O)NCc4cccnc4)cc3)n2)ccc1O (stereo not drawn) [Chemistry 372] | > 50 | < 50 | > 50
10 | COc1cc(-c2cncc(NC(C)c3ccc(C(=O)NCCO)cc3)n2)ccc1O (stereo not drawn) [Chemistry 374] | > 50 | < 50 | > 50
